Values after ≈ are worked out from the molar mass of the structure shown.
Columns and labels:
Type in all cases: physicochemical
[1] = Susceptibility to oxidation in solution as a function of pH; details: about 40° C., about 14 days
From the text: In the presence of iron (II) ions, formation of a complex with iron is observed at high pH (FIG. 90). This complex can be reversed to yield Compound I by addition of a strong acid.

physchem = assay: physchem
[2] = Chemical stability in aqueous solutions as a function of pH and temperature; details: for degradation in aqueous solution: about 20 weeks
Method: (FIG. 88(a)), or about 40° C. (FIG. 88(b)) over a period of about 20 weeks.

[3] = Ionization constants (pKa); details: multiple ionization constants; read-out: weak base pKa values
[4] = increased degradation at higher pH

## Cc1noc(C)c1-c1cc(C(O)(c2ccccn2)c2ccccn2)c2nc(C3CC3)[nH]c2c1 [Compound I, (2-cyclopropyl-6-(3,5-dimethylisoxazol-4-yl)-1H-benzo[d]imidazol-4-yl)di(pyridin-2-yl)methanol]
[1]
  degradation in solution containing polysorbate 80: No significant degradation
  degradation in solution containing radical initiator: No significant degradation
[1]; [4]
  degradation in solution containing hydrogen peroxide: loss of Compound I
  degradation in solution containing iron (II) ions: loss of Compound I
physchem; pH 2.4, aqueous buffer
  solubility: > 100000 µg/mL
physchem; pH 8, aqueous buffer
  solubility: 9.2 µg/mL (≈ 21 µM)
[2]; about pH 1 to about pH 11, about 25° C.
  degradation in aqueous solution: no significant degradation
[2]; about pH 1 to about pH 11, about 40° C.
  degradation in aqueous solution: no significant degradation
[2]; about pH 1 to about pH 11, about 60° C., exception pH 5 (small amount of aluminum complex)
  degradation in aqueous solution: no significant degradation
[2]; aqueous solutions as a function of pH and temperature
  susceptibility to acid- or base-catalyzed degradation: not susceptible to acid- or base-catalyzed degradation
[3]
  pKa: 2.9
